In ChEMBL document CHEMBL3044590, “Nematicidal activity of plant essential oils and components from coriander (Coriandrum sativum), Oriental sweetgum (Liquidambar orientalis), and valerian (Valeriana wallichii) essential oils against pine wood nematode (Bursaphelenchus xylophilus)” (2008):

Experiments:
Assay type in all cases: functional
[1] = system: Bursaphelenchus xylophilus; experiment: Nematicidal activity against Bursaphelenchus xylophilus assessed as nematode mortality at 2 mg/mL measured 24 hr post dose by microscopy
[2] = system: Bursaphelenchus xylophilus; experiment: Nematicidal activity against Bursaphelenchus xylophilus assessed as nematode mortality at 0.4 mg/mL measured 24 hr post dose by microscopy
[3] = system: Bursaphelenchus xylophilus; experiment: Nematicidal activity against Bursaphelenchus xylophilus assessed as nematode mortality at 0.8 mg/mL measured 24 hr post dose by microscopy
[4] = system: Bursaphelenchus xylophilus; experiment: Nematicidal activity against Bursaphelenchus xylophilus assessed as nematode mortality at 1 mg/mL measured 24 hr post dose by microscopy
[5] = system: Bursaphelenchus xylophilus; experiment: Nematicidal activity against Bursaphelenchus xylophilus assessed as nematode mortality at 0.2 mg/mL measured 24 hr post dose by microscopy
[6] = system: Bursaphelenchus xylophilus; experiment: Nematicidal activity against Bursaphelenchus xylophilus assessed as nematode mortality at 0.6 mg/mL measured 24 hr post dose by microscopy

SMILES: C/C=C/c1cc(OC)c(OC)cc1OC [TRANS-ASARONE]
- mortality at 2000 µg/mL [1]: 12.1%

SMILES: CCCCCCCCC [NONANE]
- mortality at 2000 µg/mL [1]: 1.7%

SMILES: CC(O)c1ccccc1 (stereo not given) [PHENYL ETHANOL]
- mortality at 2000 µg/mL [1]: 3%

SMILES: C=Cc1ccccc1 [STYRENE]
- mortality at 2000 µg/mL [1]: 6.7%

SMILES: OCc1ccccc1 [BENZYL ALCOHOL]
- mortality at 2000 µg/mL [1]: 3.8%

SMILES: CCCCCCCCCCO [DECANOL]
- mortality at 400 µg/mL [2]: 100%
- mortality at 800 µg/mL [3]: 100%
- mortality at 2000 µg/mL [1]: 100%
- mortality at 1000 µg/mL [4]: 100%
- mortality at 200 µg/mL [5]: 100%
- mortality at 600 µg/mL [6]: 100%

SMILES: CCCCCCCCCCC=O [UNDECANAL]
- mortality at 400 µg/mL [2]: 34.1%
- mortality at 800 µg/mL [3]: 90.5%
- mortality at 2000 µg/mL [1]: 100%
- mortality at 1000 µg/mL [4]: 98.7%
- mortality at 200 µg/mL [5]: 17.8%
- mortality at 600 µg/mL [6]: 64.1%

SMILES: CCCCCCCCCCCC=O [DODECANAL]
- mortality at 400 µg/mL [2]: 20.8%
- mortality at 800 µg/mL [3]: 77.8%
- mortality at 2000 µg/mL [1]: 100%
- mortality at 1000 µg/mL [4]: 86.3%
- mortality at 200 µg/mL [5]: 11.5%
- mortality at 600 µg/mL [6]: 37.6%

SMILES: CC(=O)OC/C=C(\C)CCC=C(C)C [GERANYL ACETATE]
- mortality at 2000 µg/mL [1]: 7%

SMILES: CCCCCCC=O [HEPTANAL]
- mortality at 2000 µg/mL [1]: 40.8%

SMILES: O=Cc1ccccc1 [BENZALDEHYDE]
- mortality at 400 µg/mL [2]: 7.4%
- mortality at 800 µg/mL [3]: 77.5%
- mortality at 2000 µg/mL [1]: 100%
- mortality at 1000 µg/mL [4]: 94.1%
- mortality at 200 µg/mL [5]: 1.9%
- mortality at 600 µg/mL [6]: 45.6%

SMILES: CCCCCCC/C=C/CO
- mortality at 400 µg/mL [2]: 100%
- mortality at 800 µg/mL [3]: 100%
- mortality at 2000 µg/mL [1]: 100%
- mortality at 1000 µg/mL [4]: 100%
- mortality at 200 µg/mL [5]: 98%
- mortality at 600 µg/mL [6]: 100%

SMILES: OCCCc1ccccc1 [HYDROCINNAMYL ALCOHOL]
- mortality at 2000 µg/mL [1]: 17.2%

SMILES: C/C=C\c1cc(OC)c(OC)cc1OC [CIS-ASARONE]
- mortality at 400 µg/mL [2]: 47.9%
- mortality at 800 µg/mL [3]: 100%
- mortality at 2000 µg/mL [1]: 100%
- mortality at 1000 µg/mL [4]: 100%
- mortality at 200 µg/mL [5]: 15.8%
- mortality at 600 µg/mL [6]: 96.2%

SMILES: CC(=O)c1ccccc1 [ACETOPHENONE]
- mortality at 2000 µg/mL [1]: 5.3%

SMILES: CCCCCCCCC=O [NONANAL]
- mortality at 400 µg/mL [2]: 3.6%
- mortality at 800 µg/mL [3]: 83.4%
- mortality at 2000 µg/mL [1]: 100%
- mortality at 1000 µg/mL [4]: 95.8%
- mortality at 200 µg/mL [5]: 1.1%
- mortality at 600 µg/mL [6]: 59.5%

SMILES: C=C/C(C)=C/CC=C(C)C [OCIMENE]
- mortality at 2000 µg/mL [1]: 16.2%

SMILES: OC/C=C/c1ccccc1 [CINNAMIC ALCOHOL]
- mortality at 400 µg/mL [2]: 57.6%
- mortality at 800 µg/mL [3]: 100%
- mortality at 2000 µg/mL [1]: 100%
- mortality at 1000 µg/mL [4]: 100%
- mortality at 200 µg/mL [5]: 11.3%
- mortality at 600 µg/mL [6]: 99.5%

SMILES: CCCCCCCC=O [OCTANAL]
- mortality at 400 µg/mL [2]: 31.2%
- mortality at 800 µg/mL [3]: 79.3%
- mortality at 2000 µg/mL [1]: 100%
- mortality at 1000 µg/mL [4]: 89%
- mortality at 200 µg/mL [5]: 3.5%
- mortality at 600 µg/mL [6]: 55.2%

SMILES: CCCCCCCCCC=O [DECANAL]
- mortality at 400 µg/mL [2]: 25.1%
- mortality at 800 µg/mL [3]: 97.3%
- mortality at 2000 µg/mL [1]: 100%
- mortality at 1000 µg/mL [4]: 100%
- mortality at 200 µg/mL [5]: 3%
- mortality at 600 µg/mL [6]: 34.2%
